Measurements: the supplement of paper PMC10331698
± gives the standard deviation of the averaged measurements.

Tests used:
Experiment in all cases: level (log10 ratio to DMSO vehicle control); higher = higher biomarker level / cell amount than vehicle control
[1] = compound: O=C(O)C(F)(F)C(F)(F)C(F)(F)OC(F)(C(F)(F)F)C(F)(F)F [Perfluoro-4-isopropoxybutanoic acid]; conditions: in DMSO
Procedure: (§1)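 BioMAP Diversity Plus panel of 12 human primary cell co-culture systems (3C, 4H, LPS, SAg, BT, BF4T, BE3C, CASM3C, HDF3CGF, KF3CT, MyoF, Mphg). Compounds were added 1 h before stimulation and left for 24 h (MyoF 48 h; BT 72 h for soluble read-outs or 6 d for IgG). Biomarkers were read by ELISA, cytotoxicity by SRB, PBMC viability and proliferation by Alamar Blue. Each well value was divided by the mean of 8 DMSO control wells on the same plate and log10 transformed; duplicate blinded samples were tested at 4 concentrations.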

[2] = compound: O=C(O)C(F)(F)C(F)(F)F [Perfluoropropanoic acid]; conditions: in DMSO
Procedure: as §1

[3] = compound: O=C(O)C(F)(F)C(F)(F)C(F)(F)C(F)(F)C(F)(F)C(F)(F)C(F)(F)C(F)F [9-H-Perfluorononanoic acid]; conditions: in DMSO
Procedure: as §1

[4] = compound: OCC(F)(F)OC(F)(F)C(F)(F)OC(F)(F)CO [1H,1H,8H,8H-Perfluoro-3,6-dioxaoctane-1,8-diol]; conditions: in DMSO
Procedure: as §1

[5] = compound: O=C(O)C(F)(F)C(F)(F)C(F)(F)C(F)(F)F [Perfluoropentanoic acid]; conditions: in DMSO
Procedure: as §1

[6] = compound: O=C(O)C(F)(F)C(F)(F)C(F)F [4H-Perfluorobutanoic acid]; conditions: in DMSO
Procedure: as §1

[7] = compound: OCCCC(F)(F)C(F)(F)C(F)(F)C(F)(F)C(F)(F)C(F)(F)C(F)(F)F [7:3 Fluorotelomer alcohol]; conditions: 6700 nM; in DMSO
Procedure: as §1

| Test System | level (log10) ([1]; 6700 nM) | level (log10) ([1]; 20000 nM) | level (log10) ([1]; 60000 nM) | level (log10) ([2]; 6700 nM) | level (log10) ([2]; 20000 nM) | level (log10) ([2]; 60000 nM) | level (log10) ([3]; 6700 nM) | level (log10) ([3]; 20000 nM) | level (log10) ([3]; 60000 nM) | level (log10) ([4]; 6700 nM) | level (log10) ([4]; 20000 nM) | level (log10) ([4]; 60000 nM) | level (log10) ([5]; 6700 nM) | level (log10) ([5]; 20000 nM) | level (log10) ([5]; 60000 nM) | level (log10) ([6]; 6700 nM) | level (log10) ([6]; 20000 nM) | level (log10) ([6]; 60000 nM) | level (log10) [7] |
| --- | --- | --- | --- | --- | --- | --- | --- | --- | --- | --- | --- | --- | --- | --- | --- | --- | --- | --- | --- |
| HDF3CGF:Collagen III | -0.02 ± 0.051 | -0.0115 ± 0.011 | -0.0025 ± 0.057 | -0.01 ± 0.1 | -0.0045 ± 0.032 | 0.048 ± 0.013 | -0.047 ± 0.013 | -0.115 ± 0.013 | -0.155 ± 0.057 | -0.0035 ± 0.0078 | -0.0105 ± 0.0078 | 0.0165 ± 0.05 | 0.005 ± 0.014 | 0.01 ± 0.017 | 0.033 ± 0.034 | -0.005 ± 0.088 | 0.03 ± 0.054 | 0.072 ± 0.042 | 0.0135 ± 0.044 |
| MyoF:MMP-1 | -0.0155 ± 0.0092 | 0.0115 ± 0.013 | 0.045 ± 0.051 | -0.0675 ± 0.11 | -0.0565 ± 0.06 | 0.05 ± 0.095 | -0.015 ± 0.0099 | -0.005 | -0.0215 ± 0.023 | -0.022 ± 0.028 | -0.0115 ± 0.011 | 0.024 ± 0.058 | -0.009 ± 0.02 | -0.0215 ± 0.011 | 0.009 ± 0.071 | -0.0355 ± 0.07 | -0.07 ± 0.054 | 0.022 ± 0.044 | -0.004 |
| lMphg:M-CSF | -0.016 ± 0.0028 | -0.0185 ± 0.015 | 0.016 ± 0.0085 | -0.014 ± 0.0085 | -0.0155 ± 0.00071 | 0.003 ± 0.017 | -0.008 ± 0.028 | -0.0035 ± 0.018 | -0.0045 ± 0.013 | -0.011 ± 0.0071 | -0.004 ± 0.0085 | -0.01 ± 0.0028 | -0.028 ± 0.045 | 0.006 ± 0.035 | 0.0095 ± 0.049 | -0.0115 ± 0.005 | -0.015 ± 0.0028 | -0.0175 ± 0.0064 | -0.0205 ± 0.037 |
| HDF3CGF:CD106/VCAM-1 | -0.027 ± 0.062 | -0.0545 ± 0.067 | -0.0545 ± 0.00071 | -0.0555 ± 0.0035 | -0.018 ± 0.0014 | 0.0175 ± 0.052 | -0.041 ± 0.018 | -0.064 ± 0.013 | -0.066 ± 0.013 | -0.0145 ± 0.011 | -0.0145 ± 0.026 | 0.0115 ± 0.018 | -0.0095 ± 0.005 | 0.0035 ± 0.036 | 0.0035 ± 0.022 | -0.0385 ± 0.018 | -0.0525 ± 0.022 | -0.0445 ± 0.096 | -0.0795 ± 0.005 |
| MyoF:SRB | -0.0055 ± 0.0021 | 0.0015 ± 0.00071 | -0.0035 ± 0.0064 | 0.0015 ± 0.012 | 0.0005 ± 0.011 | -0.0015 ± 0.0092 | 0.015 ± 0.0042 | 0.003 | -0.0105 ± 0.0064 | -0.0045 ± 0.00071 | -0.001 ± 0.0014 | -0.017 ± 0.013 | 0.003 ± 0.0028 | -0.009 ± 0.0014 | -0.004 ± 0.0057 | 0.0005 ± 0.013 | 0.002 ± 0.0085 | 0.0055 ± 0.0021 | 0.006 ± 0.0071 |
| HDF3CGF:CXCL10/IP-10 | -0.0135 ± 0.0064 | -0.029 ± 0.011 | -0.0615 ± 0.0035 | -0.005 ± 0.0085 | -0.001 ± 0.0028 | 0.02 ± 0.0071 | -0.0535 ± 0.016 | -0.023 ± 0.02 | -0.052 ± 0.017 | 0.004 ± 0.0014 | -0.0085 ± 0.00071 | -0.011 ± 0.021 | 0 ± 0.014 | -0.011 ± 0.0028 | 0.006 ± 0.0057 | -0.0145 ± 0.016 | 0.0025 ± 0.0021 | 0.0085 ± 0.012 | -0.047 ± 0.03 |
